# Reference: US10894777B2, “TG2 inhibitor piperazine compounds and uses thereof” (UNIVERSITY OF OTTAWA, priority 2016, dated 2021)
# Tests used:
# [1] = molecular target: T1, TG3a (Homo sapiens, UniProt Q08188); assay: Fluorescence isopeptidase activity assay (A101 probe), TG3a; type: biochemical
# T1 construct: purchased Zedira
# Experimental: Selectivity of certain irreversible inhibitors over other members of the transglutaminase family was assessed. […] Inhibitors were tested using a continuous colorimetric assay (Leblanc, A. et al., Biochemistry (2001), 40 (28): 8335-8342) for hTG1 and hTG6 and a commercially available continuous fluorescent assay that utilizes a peptidic FRET quenched substrate (Oertel, K. et al., Anal. Biochem. (2007), 367 (2): 152-158; Király, R. et al., Amino Acids (2016), 48 (1): 31-40) for the other transglutaminases, FXIIIa and hTG3. The rate constant of enzyme inactivation (kobs) for a specific concentration of inhibitor was obtained using Kitz and Wilson conditions (Kitz, R. et al., J. Biol. Chem. (1962), 237: 3245-49). Inhibitor concentrations were adjusted to account for competition with substrates in each enzymatic reaction.
# Fluorescence isopeptidase activity assay. The isopeptidase activity of pre-activated TG3a and FXIIIa (purchased from Zedira) was measured via a fluorescence-based assay (Király, R. et al., Amino Acids (2016), 48 (1): 31-40) using the commercially available peptidic FRET quenched probe A101 from Zedira. Briefly, the final concentration in the reaction mixture contained 50 mM Tris (pH 7.0), 10 mM CaCl2, 100 mM NaCl, 2.8 mM TCEP, 50 μM A101 and 14 mM H-Gly-OMe. The reaction was monitored at 25° C. using a BioTek Synergy 4 plate reader (Ex/Em: 318/413 nm).
# [2] = tested on: NFκB; assay: NFκB subcellular distribution (cell fractionation, immunoblot), ECS cells; type: cell-based, human; conditions: 8 day spheroids, 20 μM, 48 h
# Experimental: In (A), it is shown that ECS cells have reduced NFκB-p65 levels. SCC-13 cells (40,000) were grown in spheroid medium in attached (monolayer) and non-attached (spheroid, ECS cells) conditions. Lysates were prepared after 10 d in culture for electrophoresis and detection of indicated epitopes. In (B). […] and SCC13-TG2-shRNA2 cells were grown in spheroid medium as monolayers. After 10 d in culture, lysates were collected for detection of TG2 and NFκB-p65. In (C), SCC-13 cells were electroporated with control-, NFκB-p65- or TG2-siRNA and then cultured as monolayers in spheroid medium. After 72 h extracts were prepared to assay TG2, NFκB-p65 and EMT markers. In (D), SCC-13 cells were electroporated with empty vector Control- or TG2-siRNA and plated in monolayer culture. The following day cells were fixed, permeabilized and incubated with antibodies specific for the indicated epitopes. […] In (E), an equal number of cell equivalents of total (T), nuclear (N), and cytosolic (C) extract, prepared from SCC13-Control-shRNA and SCC13-TG2-shRNA2 (TG2 knockdown) cells, was electrophoresed for immunoblot detection of NFκB, histone 3 (nuclear marker) and β-actin (cytoplasmic marker). […] In (F), total (T), nuclear (N), and cytosolic (C) extract was prepared from 8 day spheroids (ECS cells) treated with 0 or 20 μM NC9 for 48 h. […]
# [3] = tested on: TG2 level; assay: TG2 level immunoblot, SCC-13 spheroids; type: cell-based, human; conditions: 20 μM, 48 hours
# Experimental: In (A), SCC-13 cells (40,000) were plated in non-adherent six well dishes, grown for 8 days in spheroid medium, and then NC9 was added and spheroid number was monitored at 0-48 hours. In (B), spheroids were grown for 10 days, treated for 48 hours with indicated level of NC9 and photographed. In (C), SCC-13 cells were plated at 40,000 cells per well in non-adherent six well dishes and after 10 days the spheroids were treated with 0-20 μM NC9 for 0-72 hours before trypan blue exclusion viability assay. In (D), SCC-13 spheroids were grown for 10 days, treated with 0 or 20 μM NC9 for 48 hours, and TG2 level was assayed by immunoblot. In (E), SCC-13 cells were grown as monolayers in spheroid medium and TG2 activity was monitored by FC incorporation assay as outlined in the Materials and Methods for Example 7. In (F), SCC-13 cell 8 day spheroids were treated with […] NC9 and cells were harvested at the indicated times for immunoblot detection of procaspase 3 and cleaved caspase 3. In all panels, the values are mean±SEM, n=3, p<0.05.
# T1 sequence (Q08188 2-467 limits assumed): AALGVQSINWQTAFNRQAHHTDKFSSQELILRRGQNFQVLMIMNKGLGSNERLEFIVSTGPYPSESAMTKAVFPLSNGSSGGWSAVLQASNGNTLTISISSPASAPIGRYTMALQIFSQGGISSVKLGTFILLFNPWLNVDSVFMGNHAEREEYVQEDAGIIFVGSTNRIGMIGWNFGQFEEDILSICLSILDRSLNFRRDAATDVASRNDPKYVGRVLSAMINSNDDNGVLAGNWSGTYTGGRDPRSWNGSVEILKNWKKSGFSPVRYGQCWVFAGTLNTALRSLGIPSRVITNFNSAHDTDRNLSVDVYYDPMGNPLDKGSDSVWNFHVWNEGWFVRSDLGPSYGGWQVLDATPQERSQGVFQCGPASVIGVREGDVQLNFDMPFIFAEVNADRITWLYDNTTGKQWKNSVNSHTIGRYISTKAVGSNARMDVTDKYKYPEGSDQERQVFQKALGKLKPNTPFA
# T1 sequence (Q08188 468-693 partner limits assumed): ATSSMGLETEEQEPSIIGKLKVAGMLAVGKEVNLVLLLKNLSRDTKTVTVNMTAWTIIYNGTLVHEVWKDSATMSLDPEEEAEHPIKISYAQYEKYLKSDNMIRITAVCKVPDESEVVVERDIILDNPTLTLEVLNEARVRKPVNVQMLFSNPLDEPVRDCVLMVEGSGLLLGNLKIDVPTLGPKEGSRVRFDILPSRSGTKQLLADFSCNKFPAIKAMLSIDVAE
compound,measurement,setting,value
C=CC(=O)NCCCC[C@H](NC(=O)OCc1ccccc1)C(=O)NCCOCCOCCNS(=O)(=O)c1cccc2c(N(C)C)cccc12 [NC9],"kobs (10^−3 min^−1), TG3a","[1]; Table 9, Kitz and Wilson conditions",1.01 ± 0.09 10^−3 min^−1
same,selectivity towards hTG2 over hTG3a,[1]; from kobs,about 390 fold
same,cytoplasmic/nuclear distribution of NFκB,[2],not altered
same,TG2 level,[3],not associated with reduced TG2 level
